Data on two compounds can be found in US20230124374A1, “COMPOSITIONS AND METHODS FOR EYE HEALTH COMPRISING VERY LONG CHAIN FATTY ACIDS” (BAUSCH + LOMB IRELAND LIMITED, priority 2020, published 2023).

A short description of data set [1]: single-dose bioavailability study, gavage feeding of 32:6 n-3 loaded liposomes, GC-MS of tissue lipids. It is filed as in vivo, wild-type (WT) C57BL/6J mice. The protocol:
FIGS. 1A and 1B show wild-type (WT) mice single-dose bioavailability studies: (1A) Serum absorption kinetics of C32 acid (6n-3) (“32:6n-3”) after single-dose gavage feeding of 6 mg/mouse (n=4 mice/time point) and (1B) retina and RPE uptake of 32:6 n-3 after single-dose gavage feeding. No VLCPUFAs were detected in liver, brain, or RBC membranes at any time point. Data are presented as mean±SEM (***P<0.005; **P<0.01; *P<0.05).
Three month old wild-type (WT) C57BL/6J mice (22±3 g) were each gavage fed 6 mg per day of C32 acid (6n-3) (“32:6 n-3”) loaded VLCPUFA liposomes (0.1 mL) (250 mg/kg body weight) prepared as disclosed in Gorusupudi et al. PNAS 118(6), e2017739118 (2021), which is incorporated herein by reference in its entirety. The mice were killed 0, 2, 4, 8, and 24 h after gavage (n=4 mice/time interval) to harvest the blood and other tissues. Eyes were dissected under a microscope to separate the retina from the RPE. One pair of retinas/mouse was used for lipid extraction, and blood was centrifuged for 5 minutes at 7,500 rpm to separate serum from RBCs. Serum, RBCs, brain, liver, retina, and RPE were used for lipid extractions and GC-MS analysis.
(§1) On the other hand, 32:6 n-3 remained undetectable in liver, brain, and red blood cell (RBC) membranes throughout the 24 h period. Longer-term absorption was studied by gavage feeding VLCPUFA-loaded liposomes (0.1 mL) to WT (22±3 g) and conditional KO mice developed with an intention to ablate Elov14 expression completely in both rods and cones (E4cKO mice) (23±3 g) for 15 d with 0, 1, and 2 mg/d 32:6 n-3 (n=6 mice/group). Mice were fed each morning with liposomes prepared as above containing 0 mg/d (0 mg/kg BW), 1 mg/d (40 mg/kg BW), or 2 mg/d (80 mg/kg BW) of 32:6 n-3. Mice were killed at the end of the experiments, and retina, RPE, liver, serum, RBCs, and brain tissues were harvested, extracted for lipids, and analyzed by GC-MS.

Data set [2] can be described thus: long-term uptake of 32:6 n-3 in Elov14 rod-cone conditional KO mice, 15 d gavage feeding. The format is in vivo, E4cKO mice. The settings on record: 2 mg/d. The protocol: FIGS. 4A and 4B show long-term uptake of 32:6n-3 (2 mg/d per mouse) in Elov14 rod-cone conditional KO (E4cKO) mice: (4A) Accumulation of 32:6 n-3 in E4cKO mouse retinas and RPE in comparison to age-matched WT mice after 15 d of gavage feeding (n=6 mice/group) and (4B) Accumulation of 32:6n-3 in liver and RBCs in E4cKO mice in comparison to age-matched WT mice after 15 d of gavage feeding. Data are presented as mean±SEM (**P<0.01; N.S.: not significant; N.D.: not detectable).
as §1
(§2) Retina and RPE were extracted for phospholipid analysis using liquid chromatography-tandem MS (LC-MS/MS), and increases in phosphatidylcholine (PC)-22:6/32:6 were detected in the retina and RPE in the supplemented WT animals (FIGS. 3A and 3B). Retinal and RPE 32:6 n-3 levels in the E4cKO mice were one-third and one-half of the levels in the age-matched WT mice, respectively (FIG. 4A).

A short description of data set [3]: phospholipid analysis of retina and RPE by LC-MS/MS after 15 days of gavage feeding. The format is in vivo, WT mice. The following applies: 15 days gavage, 2 mg/day, supplemented WT animals. The protocol:
FIGS. 3A and 3B show phospholipid analysis of wild type (WT) mice after 15 days of gavage feeding of VLCPUFA 32:6n-3 (2 mg/day): (3A) Retina and (3B) RPE. Data presented as mean±SEM (n=8 mice/group) (p values: *p<0.05; N.S.: not significant; N.D.: not detectable).
as §2

Data set [4] is described as follows: repeated-dose (15 d) bioavailability study, gavage feeding of 32:6 n-3 loaded liposomes, GC-MS of tissue lipids. The format is in vivo, WT mice. The following applies: 15 d gavage. As for the experimental part:
FIGS. 2A and 2B show WT mice repeated-dose bioavailability studies: (2A) Accumulation of 32:6 n-3 in mouse retina and RPE after 15 d of gavage feeding (n=6 mice/group) and (2B) Bioaccumulation of 32:6n-3 in serum, RBC, and liver after 15 d of gavage feeding. […] Data are presented as mean±SEM (***P<0.005; **P<0.01; N.S.: not significant; N.D.: not detectable).
as §1

For data set [5] the following is noted: levels as high as 800.0 mg; cited from earlier work.
[6] abbreviates: single gavage dose 6 mg/mouse, 4 to 8 h after gavage.
Setting [7] is: single gavage dose 6 mg/mouse, throughout the 24 h period.
[8] abbreviates: versus undetectable levels at 0 mg/d.
The mark [9] stands for this setting: 32:6 n-3-fed groups versus control mice (undetectable).

As to `CC/C=C\C/C=C\C/C=C\C/C=C\C/C=C\C/C=C\CCCCCCCCCCCCC(=O)O` [32:6 n-3, C32 acid (6n-3)], the “time after oral administration at which serum 32:6 n-3 became detectable” value in data set [1] (single gavage dose 6 mg/mouse (250 mg/kg), serum) is not above 2 h. In data set [1] (setting [6]), the “32:6 n-3 in the RPE” value is “significant increase” and the “32:6 n-3 in the retina” value is “significant increase”. Besides, the “serum 32:6 n-3 concentration course” value in data set [1] (single gavage dose 6 mg/mouse, serum, over the next 24 h) is given as “reached a lower steady-state concentration”. In addition, in data set [1] (setting [7]), the “32:6 n-3 in brain” value is recorded as “undetectable”, the “32:6 n-3 in liver” value is “undetectable” and the “32:6 n-3 in red blood cell (RBC) membranes” value is “undetectable”. Also, the “increase of 32:6 n-3 level in the retina relative to control-fed E4cKO mice” value in data set [2] (8-mo-old E4cKO mice, P<0.01) is reported as “nearly fivefold increase”. Besides, the “increase of 32:6 n-3 level in the RPE relative to control-fed E4cKO mice” value in data set [2] (8-mo-old E4cKO mice, P=0.001) turned out to be 27 fold. Also, in data set [2] (E4cKO mice), the “total retinal VLCPUFAs” value is reported as 0.088±0.02%. In data set [2] (setting [8]), the “RBC 32:6 n-3” value is listed as “became detectable” and the “liver 32:6 n-3” value was “became detectable”. Moreover, in data set [3], the “phosphatidylcholine (PC)-22:6/32:6 in the RPE” value is “increases” and the “phosphatidylcholine (PC)-22:6/32:6 in the retina” value was “increases”. In data set [4], the “VLCPUFAs in the brain” value was “no VLCPUFAs were ever detectable”. For the same compound, in data set [4] (1 mg/d group), the “total retinal VLCPUFAs” value came to 0.535±0.06%. Further, in data set [4] (2 mg/d group), the “total retinal VLCPUFAs” value is listed as 0.872±0.10%. Besides, the “32:6 n-3 in the liver” value in data set [4] (2 mg/d group (only group with detectable levels)) was “detectable”. Further, in data set [4] (setting [9]), the “RBC VLCPUFAs” value is given as “significantly increased” and the “serum VLCPUFAs” value was “significantly increased”. Further, in data set [4] (both fed groups (1 and 2 mg/d)), the “increase of C32 acid (6n-3) level in RPE versus 0 mg/d controls” value is listed as “sevenfold” and the “increase of C32 acid (6n-3) level in the retina versus 0 mg/d controls” value is recorded as “more than twofold”.

Take vitamin E: the adverse effects result in data set [5] was “No adverse effects”.
